Test results from the supplement of paper PMC10883282.

What was measured:
Assay in all cases: standardised AUC of viability dose-response curve (72 h) (fraction (0-1)); higher = less growth inhibition (more resistant)
[1] = system: A204
Outline: (§1)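 Sarcoma cell lines in 384-well plates were treated in triplicate for 72 h with 2.5 µl of compound dilution series (compound-plate series 10 mM to 0.0002 mM, 1:3 steps). ATPLite viability was scaled 1 (full) to 0 (none) and fitted per drug and cell line with a four-parameter log-logistic model. The standardised area under the dose-response curve in log-dose space (modified drexplorer computeAUC) runs from 1 (no response) to 0 (full response).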

[2] = system: G401
Outline: as §1

[3] = system: HS729
Outline: as §1

[4] = system: HT1080
Outline: as §1

[5] = system: KHOS-240S
Outline: as §1

[6] = system: KHOS-NP
Outline: as §1

[7] = system: MES-SA
Outline: as §1

[8] = system: RD-ES
Outline: as §1

[9] = system: RD
Outline: as §1

[10] = system: SK-ES-1
Outline: as §1

[11] = system: SK-LMS-1
Outline: as §1

[12] = system: SW1353
Outline: as §1

[13] = system: SW684
Outline: as §1

[14] = system: SW872
Outline: as §1

[15] = system: SW982
Outline: as §1

[16] = system: SYO-1
Outline: as §1

[17] = system: VA-ES-BJ
Outline: as §1

Compound	standardised AUC [1]	standardised AUC [2]	standardised AUC [3]	standardised AUC [4]	standardised AUC [5]	standardised AUC [6]	standardised AUC [7]	standardised AUC [8]	standardised AUC [9]	standardised AUC [10]	standardised AUC [11]	standardised AUC [12]	standardised AUC [13]	standardised AUC [14]	standardised AUC [15]	standardised AUC [16]	standardised AUC [17]
Cc1nc(NC(=O)N2CCC[C@H]2C(N)=O)sc1-c1ccnc(C(C)(C)C(F)(F)F)c1 [ALPELISIB]	0.848	0.845	0.78	0.963	0.895	0.964	0.818	0.793	0.86	0.799	0.867	0.909	0.887	0.819	0.935	0.814	0.852
Cc1ccc(F)c(NC(=O)Nc2ccc(-c3cccc4[nH]nc(N)c34)cc2)c1 [LINIFANIB]	0.74	0.948	0.884	0.994	0.983	0.955	0.973	0.994	1	0.964	1	0.993	0.996	0.972	1	0.879	1
C=CC(=O)N1CCC[C@@H](n2nc(-c3ccc(Oc4ccccc4)cc3)c3c(N)ncnc32)C1 [IBRUTINIB]	0.967	0.973	0.941	1	0.954	0.966	0.948	0.994	0.997	0.991	0.978	0.85	0.997	0.934	0.992	0.892	0.995
CNC(=O)c1ccc(-c2cnc3ncc(Cc4ccc5ncccc5c4)n3n2)cc1F [CAPMATINIB]	0.971	0.973	0.989	0.976	0.986	0.998	0.982	1	0.995	1	0.68	1	0.958	0.989	0.985	1	0.873
COc1cc2/c(=N/c3ccc(Br)cc3F)nc[nH]c2cc1OCC1CCN(C)CC1 [VANDETANIB]	0.843	0.925	0.921	0.968	0.879	0.961	0.912	0.911	0.852	0.853	0.894	0.906	0.954	0.886	0.836	0.757	0.955
CC(=O)Nc1cccc(-n2c(=O)n(C3CC3)c(=O)c3c(Nc4ccc(I)cc4F)n(C)c(=O)c(C)c32)c1 [TRAMETINIB]	0.782	0.651	0.761	0.577	0.783	0.523	0.827	0.989	0.65	0.958	0.533	0.709	0.714	0.619	0.897	0.825	0.756
CN[C@@H]1C[C@H]2O[C@@](C)([C@@H]1OC)n1c3ccccc3c3c4c(c5c6ccccc6n2c5c31)C(=O)NC4 [STAUROSPORINE]	0.309	0.331	0.409	0.313	0.284	0.369	0.435	0.435	0.343	0.398	0.376	0.294	0.427	0.337	0.25	0.288	0.346
CC1(C)CNc2cc(NC(=O)c3cccnc3NCc3ccncc3)ccc21 [MOTESANIB]	0.756	0.957	0.944	0.981	0.97	0.975	0.995	0.994	1	0.991	0.983	0.975	0.95	0.978	0.997	0.866	1
CO[C@H]1C[C@@H]2CC[C@@H](C)[C@@](O)(O2)C(=O)C(=O)N2CCCC[C@H]2C(=O)O[C@H]([C@H](C)C[C@@H]2CC[C@@H](OP(C)(C)=O)[C@H](OC)C2)CC(=O)[C@H](C)/C=C(\C)[C@@H](O)[C@@H](OC)C(=O)[C@H](C)C[C@H](C)/C=C/C=C/C=C/1C [RIDAFOROLIMUS]	0.643	0.832	0.937	0.925	0.867	0.97	0.542	0.764	0.748	0.682	0.645	0.796	0.798	0.686	0.729	0.874	0.587
CC(C)N1CCN(Cc2cnc(-c3cc(-c4cccc5[nH]ccc45)cc4[nH]ncc34)o2)CC1 [NEMIRALISIB]	0.908	0.947	0.906	0.996	0.944	0.998	0.95	0.95	0.924	0.935	0.944	0.917	0.726	0.919	0.916	0.916	0.952
CN1CCN(c2ccc3nc(-c4c(N)c5c(F)cccc5[nH]c4=O)[nH]c3c2)CC1 [DOVITINIB]	0.748	0.833	0.821	0.906	0.81	0.917	0.81	0.82	0.904	0.749	0.904	0.86	0.902	0.823	0.792	0.717	0.865
COCc1c(-c2cc3cc(C)cc(OC)c3s2)c2c(N)ncnn2c1CN1CCNC(=O)C1 [ROGARATINIB]	0.755	0.807	0.776	0.999	0.854	0.987	0.85	0.934	0.958	0.907	0.952	0.851	0.974	0.943	0.93	0.751	0.962
C=CC(=O)Nc1cccc(Oc2nc(Nc3ccc(N4CCN(C)CC4)cc3)nc3ccsc23)c1 [OLMUTINIB]	0.98	0.964	0.931	0.951	0.954	0.993	0.945	0.982	0.951	0.936	0.927	0.918	0.899	0.964	0.907	0.923	0.939
CCCS(=O)(=O)Nc1ccc(F)c(C(=O)c2c[nH]c3ncc(-c4ccc(Cl)cc4)cc23)c1F [VEMURAFENIB]	0.977	0.992	0.978	0.983	0.979	0.983	0.956	0.989	0.978	0.959	0.93	0.946	0.97	0.802	0.949	0.978	0.983
